The nature of the data set: recombinant UMI read abundance after kanamycin selection (control-corrected) (log10(CPM+1)); higher = more efficient recombination; extreme values may be limits of the assay; sequences stand for … in AGTGCAGAGAAAATCGGCCAGTTTTCTCTGCCTGCAGTCCGCATGCCGTGGGACCCCTTGGGTTCTAACCTGTTGCCTAGATTTATGCAGCGGACTGCCTTTCTCCCAAAGTGATAAACCGG…AGGTTGGTTTCACT; site = the 11-nt donor. The gist of the method:
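Reported values are log10(CPM+1) from a pooled Escherichia coli screen of donor and donor-binding-loop pairs for the IS621 bridge recombinase. Selection used IPTG (0.07 mM) plus kanamycin, against unselected plating, each in two replicates. Recombinant UMIs were amplified across the donor–target junction, sequenced, converted to CPM, averaged over replicates and scaled by control-derived factors.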
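Also: IS621 bridge recombinase in Escherichia coli cells against a fixed T5 target plasmid.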

Regarding “CCCTTCTCATGGACCGGTTTTCCCGGTAATCCGTATTTGGA (site CCCTTCTCTTC)”, the “recombinant UMI read abundance (log10)” value came to 0.21.
Take “CCCTTGCCATGGACCGGTTTTCCCGGTAATCCGTATTTGCC (site CCCTAGCCTGG)”: the “recombinant UMI read abundance (log10)” value was 0.
As to “CCCTTGCCATGGACCGGTTTTCCCGGTAATCCGTATTTGCC (site CCCTCGCCTGG)”, the “recombinant UMI read abundance (log10)” value was 0.
With “CCCTTGCCATGGACCGGTTTTCCCGGTAATCCGTATTTGCC (site CCCTGGCCTGG)” the figure was 0; with “CCCTTGCCATGGACCGGTTTTCCCGGTAATCCGTATTTGCC (site CCCTTGCCTGG)”, 0; with “CCCTTGTCATGGACCGGTTTTCCCGGTAATCCGTATTTGGG (site CCCTTATCTCC)”, 0.393.
Take “CCCTTGTCATGGACCGGTTTTCCCGGTAATCCGTATTTGGG (site CCCTTCTCTCC)”: the “recombinant UMI read abundance (log10)” value turned out to be 0.00922.
For “CCCTTGTCATGGACCGGTTTTCCCGGTAATCCGTATTTGGG (site CCCTTGTCTCC)”, the “recombinant UMI read abundance (log10)” value worked out at 0.297.
Next, “CCCTTGTCATGGACCGGTTTTCCCGGTAATCCGTATTTGGG (site CCCTTTTCTCC)”: 0.0116.
Next, “CCCTTTACATGGACCGGTTTTCCCGGTAATCCGTATTTGCT (site CCATTTACTAG)”: 0; “CCCTTTACATGGACCGGTTTTCCCGGTAATCCGTATTTGCT (site CCCTTTACTAG)”: 1.76.
Take “CCCTTTACATGGACCGGTTTTCCCGGTAATCCGTATTTGCT (site CCGTTTACTAG)”: the “recombinant UMI read abundance (log10)” value worked out at 0.
With “CCCTTTACATGGACCGGTTTTCCCGGTAATCCGTATTTGCT (site CCTTTTACTAG)” the figure was 0; with “CCGAAACCATGGACCGGTTTTCCCGGTAATCCGTATTTGTT (site CCGAAACCTAA)”, 0; with “CCGAAACCATGGACCGGTTTTCCCGGTAATCCGTATTTGTT (site CGGAATCCTAA)”, 0.00312.
With “CCGAAGGCATGGACCGGTTTTCCCGGTAATCCGTATTTGTG (site CCGAAGGCTCA)”, the “recombinant UMI read abundance (log10)” value was 0.495.
Consider “CCGAATACATGGACCGGTTTTCCCGGTAATCCGTATTTGGC (site CCAAATACTGC)”, for which the “recombinant UMI read abundance (log10)” value was found to be 0.
On to “CCGAATACATGGACCGGTTTTCCCGGTAATCCGTATTTGGC (site CCCAATACTGC)”, for which the “recombinant UMI read abundance (log10)” value came to 0.
As for “CCGAATACATGGACCGGTTTTCCCGGTAATCCGTATTTGGC (site CCGAATACTGC)”, the “recombinant UMI read abundance (log10)” value was 0.
Next, “CCGAATACATGGACCGGTTTTCCCGGTAATCCGTATTTGGC (site CCTAATACTGC)”: 0; “CCGACATCATGGACCGGTTTTCCCGGTAATCCGTATTTGCT (site CAGACATCTAG)”: 0; “CCGACATCATGGACCGGTTTTCCCGGTAATCCGTATTTGCT (site CCGACATCTAG)”: 0.421.
Turning to “CCGACATCATGGACCGGTTTTCCCGGTAATCCGTATTTGCT (site CGGACATCTAG)”, the “recombinant UMI read abundance (log10)” value is 0.
For “CCGACATCATGGACCGGTTTTCCCGGTAATCCGTATTTGCT (site CTGACATCTAG)”, the “recombinant UMI read abundance (log10)” value is 0.
With “CCGACCTCATGGACCGGTTTTCCCGGTAATCCGTATTTGGT (site CCGACCTCTAC)” the figure was 0.121.
“CCGATATCATGGACCGGTTTTCCCGGTAATCCGTATTTGTC (site CCAATATCTGA)”: the “recombinant UMI read abundance (log10)” value is 0.
With “CCGATATCATGGACCGGTTTTCCCGGTAATCCGTATTTGTC (site CCCATATCTGA)” the figure was 0.
With “CCGATATCATGGACCGGTTTTCCCGGTAATCCGTATTTGTC (site CCGATATCTGA)” the figure was 1.21; with “CCGATATCATGGACCGGTTTTCCCGGTAATCCGTATTTGTC (site CCTATATCTGA)”, 0; with “CCGATGCCATGGACCGGTTTTCCCGGTAATCCGTATTTGGA (site CCGATGCCTTC)”, 0.0103.
With “CCGATTCCATGGACCGGTTTTCCCGGTAATCCGTATTTGTT (site CCGATTCCTAA)” the figure was 0; with “CCGATTCCATGGACCGGTTTTCCCGGTAATCCGTATTTGTT (site CGGAATCCTAA)”, 0.00507; with “CCGCAGTCATGGACCGGTTTTCCCGGTAATCCGTATTTGGC (site CCGCAGTCTGC)”, 0.
Consider “CCGCATACATGGACCGGTTTTCCCGGTAATCCGTATTTGTT (site CCGCATACTAA)”, for which the “recombinant UMI read abundance (log10)” value is 0.39.
“CCGGAAGCATGGACCGGTTTTCCCGGTAATCCGTATTTGAC (site CCGGAAGCTGT)”: the “recombinant UMI read abundance (log10)” value stood at 0.161.
Next, “CCGGTAGCATGGACCGGTTTTCCCGGTAATCCGTATTTGAC (site CCGGTAGCTGT)”: 2.38; “CCGGTATCATGGACCGGTTTTCCCGGTAATCCGTATTTGAC (site CCGGTATCTGT)”: 1.45.
On to “CCGGTATCATGGACCGGTTTTCCCGGTAATCCGTATTTGAC (site CTAGTATCTGT)”, for which the “recombinant UMI read abundance (log10)” value was 0.
Next, “CCGGTGGCATGGACCGGTTTTCCCGGTAATCCGTATTTGAC (site CCGGTGGCTGT)”: 1.58; “CCGTCAGCATGGACCGGTTTTCCCGGTAATCCGTATTTGTG (site CCGTAAGCTCA)”: 0; “CCGTCAGCATGGACCGGTTTTCCCGGTAATCCGTATTTGTG (site CCGTCAGCTCA)”: 0.00531.
With “CCGTCAGCATGGACCGGTTTTCCCGGTAATCCGTATTTGTG (site CCGTGAGCTCA)” the figure was 0.00599; with “CCGTCAGCATGGACCGGTTTTCCCGGTAATCCGTATTTGTG (site CCGTTAGCTCA)”, 0.00541.
On to “CCGTCATCATGGACCGGTTTTCCCGGTAATCCGTATTTGCT (site CCGTCATCTAG)”, for which the “recombinant UMI read abundance (log10)” value turned out to be 0.
With “CCGTCATCATGGACCGGTTTTCCCGGTAATCCGTATTTGCT (site CGATCATCTAG)” the figure was 0.00968; with “CCGTCGCCATGGACCGGTTTTCCCGGTAATCCGTATTTGAT (site CCGTCGCCTAT)”, 0.00407; with “CCGTCGGCATGGACCGGTTTTCCCGGTAATCCGTATTTGTG (site CCGTCGGCTCA)”, 0.0197.
In the case of “CCGTGAGCATGGACCGGTTTTCCCGGTAATCCGTATTTGTG (site CCGTAAGCTCA)”, the “recombinant UMI read abundance (log10)” value was determined as 0.0763.
With “CCGTGAGCATGGACCGGTTTTCCCGGTAATCCGTATTTGTG (site CCGTCAGCTCA)” the figure was 0.
Next, “CCGTGAGCATGGACCGGTTTTCCCGGTAATCCGTATTTGTG (site CCGTGAGCTCA)”: 0.568; “CCGTGAGCATGGACCGGTTTTCCCGGTAATCCGTATTTGTG (site CCGTTAGCTCA)”: 0.00536; “CCGTTAGCATGGACCGGTTTTCCCGGTAATCCGTATTTGTG (site ACGTTAGCTCA)”: 0.0114.
With “CCGTTAGCATGGACCGGTTTTCCCGGTAATCCGTATTTGTG (site CAGTTAGCTCA)” the figure was 0.00951; with “CCGTTAGCATGGACCGGTTTTCCCGGTAATCCGTATTTGTG (site CCATTAGCTCA)”, 0.434; with “CCGTTAGCATGGACCGGTTTTCCCGGTAATCCGTATTTGTG (site CCCTTAGCTCA)”, 0.0161.
As for “CCGTTAGCATGGACCGGTTTTCCCGGTAATCCGTATTTGTG (site CCGATAGCTCA)”, the “recombinant UMI read abundance (log10)” value came to 0.0175.
Next, “CCGTTAGCATGGACCGGTTTTCCCGGTAATCCGTATTTGTG (site CCGCTAGCTCA)”: 0.00432; “CCGTTAGCATGGACCGGTTTTCCCGGTAATCCGTATTTGTG (site CCGGTAGCTCA)”: 0.014.
As for “CCGTTAGCATGGACCGGTTTTCCCGGTAATCCGTATTTGTG (site CCGTAAGCTCA)”, the “recombinant UMI read abundance (log10)” value stood at 0.00568.
With “CCGTTAGCATGGACCGGTTTTCCCGGTAATCCGTATTTGTG (site CCGTCAGCTCA)” the figure was 0.0147; with “CCGTTAGCATGGACCGGTTTTCCCGGTAATCCGTATTTGTG (site CCGTGAGCTCA)”, 0.0389.
Next, “CCGTTAGCATGGACCGGTTTTCCCGGTAATCCGTATTTGTG (site CCGTTAACTCA)”: 0.0199; “CCGTTAGCATGGACCGGTTTTCCCGGTAATCCGTATTTGTG (site CCGTTACCTCA)”: 0.
Next, “CCGTTAGCATGGACCGGTTTTCCCGGTAATCCGTATTTGTG (site CCGTTAGCTAA)”: 0.0124; “CCGTTAGCATGGACCGGTTTTCCCGGTAATCCGTATTTGTG (site CCGTTAGCTCA)”: 0.386.
With “CCGTTAGCATGGACCGGTTTTCCCGGTAATCCGTATTTGTG (site CCGTTAGCTCC)”, the “recombinant UMI read abundance (log10)” value turned out to be 0.0262.
Next, “CCGTTAGCATGGACCGGTTTTCCCGGTAATCCGTATTTGTG (site CCGTTAGCTCG)”: 0.
With “CCGTTAGCATGGACCGGTTTTCCCGGTAATCCGTATTTGTG (site CCGTTAGCTCT)” the figure was 0.
